Assay results published in patent EP0009325A1, “Erythritol cointaining anti-caries compositions” (PFIZER INC., priority 1978, dated 1980).
Read-outs that look alike come from different tables or passages of the source.

Experiments:
[1] = system: Streptococcus mutans strain GS-5; assay: Growth of S. mutans GS-5 in nutrient medium (Klett optical density, doubling time, final pH); assay type: cell-based; details: 0.7% concentration; 37°C; columns 1-3 of Table I
Method: (§1) All compounds used in the test were in 0.7% concentration. The same concentrations were used to determine acid production in a salivary system. Streptococcus mutans strain GS-5, a human cariogenic strain, was used in all cases except the salivary test system in which the endogenous flora was used.
Klett tubes containing a tryticase-soy-yeast- cysteine nutrient and fitted with septum caps werg flushed with nitrogen gas and preincubated 30 minutes at 37°C using standard sterile technicuies, then in- noculated with a 2% innoculum of a suspension of S. mutans GS-5 cells in phosphate buffer. These were then incubated at 37°C. Optical density was measured by Klett readings (red filter) at half hour intervals.
The first three columns in the table refer to effects of the compounds on the growth characteristics of a cariogenic strain of the bacteria Streptococcus mutans. Reduction of total growth (lowered final Klett), reduction of growth rate (increase in doubling time) and reduction of acid produced (increase in final pH) are the effects desired.

dextran-sucrase (DSU) = assay: Dextran-sucrase (DSU) activity of S. mutans; assay type: cell-based, Streptococcus mutans; details: 0.7% concentration; for dextran-sucrase (DSU) activity: columns 4-8 of Table I
Excerpt: as §1
The next six columns refer to certain effects on the metabolism of the bacteria. Columns 4-8 represent measures of the activity of an enzyme (or group of enzymes) called dextran-sucrase (DSU) which is one of the principle sources of the cariogenicity of this organism. DSU converts dietary sugar into polymers which are a major ingredient of cariogenic dental plaque. Such plaque is an accumulation of these polymers, playing an essential role in caries formation and periodontal disease. Therefore, a reduction in plaque formation by means of a reduction'in DSU activity is a desired effect. In particular, a reduction in "mean specific DSU activity" - that is, amount of activity per bacterial cell - is desired since that would imply a real effect on the organisms' metabolism instead of merely a reduction in the number of cells. […] Erythritol, however, is the best in the critical measure "DSU mean specific activity (column 8). In column 9, lactic acid production is measured. Lactic acid, produced by cariogenic bacteria in response to ingestion of a meal, can increase acidity enough to dissolve tooth mineral and initiate caries. Therefore, reduction in lactic acid production is desirable. […] Finally, in the last column (10) are measures of the effect on the pH of natural saliva. In this case, the natural mixed population of bacteria is used instead of a pure culture of one strain as in the previous columns. A positive number (pH increase, corresponding to reduced acidity) is the desired result.

[2] = system: Streptococcus mutans strain GS-5; assay: Lactic acid production (Sigma kit, NADH absorbance); assay type: cell-based; details: 0.7% concentration; relative to "no compound" control; column 9 of Table I
Method: as §1
Lactic acid production was measured using the Sigma Kit for determination of lactic acid. This procedure measures the amount of lactic acid by the following reaction: [drawing 1] NAD is originally present-in excess and the increase absorbance of […] due to NADH formation becomes a measure of lactic acid originally present.
(§2) The next six columns refer to certain effects on the metabolism of the bacteria. Columns 4-8 represent measures of the activity of an enzyme (or group of enzymes) called dextran-sucrase (DSU) which is one of the principle sources of the cariogenicity of this organism. DSU converts dietary sugar into polymers which are a major ingredient of cariogenic dental plaque. Such plaque is an accumulation of these polymers, playing an essential role in caries formation and periodontal disease. Therefore, a reduction in plaque formation by means of a reduction'in DSU activity is a desired effect. […] In column 9, lactic acid production is measured. […]

endogenous flora = assay: Salivary test system: pH change of pooled saliva; assay type: cell-based, human saliva; details: final concentration 0.7%; anaerobic, 37°C, four hours; column 10 of Table I
Method: as §1
For the salivary test system, saliva was pooled from volunteers who had fasted three hours and the pH of the pooled saliva was noted. 4.95 ml of pool saliva was aseptically transferred to a series of sterile test tubes. […] of each compound were prepared and sterilized. 0.05 ml of each was aseptically added to the test tube of saliva to give a final concentration of 0.7%. The test tubes were incubated anaerobically ! at 37°C for four hours. The pH of each was then measured.
as §2, with “disease.” for “disease. Therefore, a reduction in plaque formation by means of a reduction'in DSU activity is a desired effect.”

[3] = cited from earlier work
[4] = humans; cited from earlier work
[5] = system: enzymes responsible for dental caries formation; details: cited from earlier work
[6] = cited from earlier work; remark: listed apart in the source
dental caries [7] = details: cited from earlier work
dental caries [8] = details: compared with mannitol or sorbitol; cited from earlier work
dental caries [9] = details: in diet, man; cited from earlier work

| SMILES | growth characteristics: total growth (final Klett), growth rate (doubling time), acid produced (final pH) [1] | DSU mean specific activity (dextran-sucrase (DSU); activity per bacterial cell, column 8 of Table I) | dextran-sucrase (DSU) activity (dextran-sucrase (DSU)) | lactic acid production [2] | effect on the pH of natural saliva (endogenous flora) | saturated solution in water [3] | metabolism after oral ingestion [4] | formation of enzymes responsible for dental caries formation [5] | diarrhea ([6]; rat, in vivo) | drinking water intake (dental caries [7]; rat, in vivo) | reducing the incidence of dental caries (dental caries [8]) | incidence of dental caries (dental caries [9]) | diarrhea ([6]; rats) | drinking water intake (dental caries [7]; rats) | preventing dental caries (dental caries [7]; rats) |
| --- | --- | --- | --- | --- | --- | --- | --- | --- | --- | --- | --- | --- | --- | --- | --- |
| OC[C@@H](O)[C@@H](O)CO [erythritol] | closely following | the best | superior to the other substances tested | only substance which reduced lactic acid | best substance in the test | about 38 % w/w | not significantly metabolized |  |  |  |  |  |  |  |  |
| OC[C@@H](O)[C@@H](O)[C@H](O)[C@H](O)CO [mannitol] |  |  |  |  |  |  |  | retarded |  |  |  |  |  |  |  |
| OC[C@@H](O)[C@@H](O)[C@H](O)[C@@H](O)CO [sorbitol] |  |  |  |  |  |  |  | retarded | caused diarrhea | increased drinking water intake |  |  |  |  |  |
| OC[C@@H](O)[C@H](O)[C@@H](O)CO [xylitol] | best results |  | superior to the other substances tested | superior to the other test substances | superior to the other test substances |  |  | retarded |  |  | appreciably more effective | dramatic reduction in the incidence of dental caries | caused diarrhea | increased drinking water intake | more effective than sorbitol |
